Results on 58 molecules are retold here after patent US6362369B1, “Phthalic acid diamide derivatives fluorine-containing aniline compounds as starting material, agricultural and horticultural insecticides, and a method for application of the insecticides” (Nihon Nohyaku Co., Ltd., priority 1997, dated 2002).

Structures are written as SMILES.

For the first assay, the system named is diamondback moth (Plutella xylostella). Briefly: Insecticidal effect on diamondback moth (Test Example 1). The assay is classed as in vivo. The conditions noted are these: diamondback moth; judged by the criterion of Test Example 1. The procedure: Insecticidal effect on diamondback moth (Plutella xylostella) Adult diamondback moths were released and allowed to oviposit on a Chinese cabbage seedling. […] After air-drying, it was allowed to stand in a room thermostated at 25° C. Six days after the immersion, the hatched insects were counted. The mortality was calculated according to the following equation and the insecticidal effect was judged according to the criterion shown below. The test was carried out with triplicate groups of 10 insects. [table]
`Cc1cc(C(F)(F)C(F)(F)F)ccc1NC(=O)c1cccc([S+]([O-])C(F)(F)F)c1C(=O)NC(C)C` (stereo not shown) [compound 1804]: the “Insecticidal effect (Test Example 1), judged from mortality” value (“Insecticidal effect … from mortality” below) is given as “A (100)”.

Regarding `CCCNC(=O)c1cccc(I)c1C(=O)Nc1ccc(OC(F)F)cc1C` [compound 1451], the “Insecticidal effect … from mortality” value is on record as “A (100)”.

Turning to `Cc1cc(C(F)(F)C(F)(F)F)ccc1NC(=O)c1c(Cl)cccc1C(=O)N[C@@H](CO)c1ccccc1` [compound 1443], the “Insecticidal effect … from mortality” value is given as “A (100)”.

In the case of `CC(C)NC(=O)c1c(I)cccc1C(=O)Nc1cccc(-c2csc(C(F)(F)F)n2)c1` [compound 1658], the “Insecticidal effect … from mortality” value is listed as “A (100)”.

On to `Cc1cc(C(F)(F)C(F)(F)F)ccc1NC(=O)c1c(SC(F)(F)F)ccc(Cl)c1C(=O)NC(C)C` [compound 1802], for which the “Insecticidal effect … from mortality” value is “A (100)”.

As for `Cc1cc(NC(=O)c2cccc(I)c2C(=O)NC(C)C)c(Br)cc1C(F)(C(F)(F)F)C(F)(F)F` [compound 1698], the “Insecticidal effect … from mortality” value was “A (100)”.

The same assay, now with this note: diamondback moth; judged by the mortality criterion of Test Example 1.
Turning to `Cc1c(Cl)ccc(NC(=O)c2c(Br)cccc2C(=O)NC(C)C)c1C` [compound 308], the “Insecticidal effect, Test Example 1” value is given as “A (100)”.

On to `Cc1cc(Cl)ccc1NC(=O)c1c(C(=O)NC(C)C)ccc(Br)c1Br` [compound 343], for which the “Insecticidal effect, Test Example 1” value was “A (100)”.

On to `CC(C)NC(=O)c1ccccc1C(=O)Nc1cccc(SC(F)(F)F)c1` [compound 31], for which the “Insecticidal effect, Test Example 1” value was “A (100)”.

Turning to `CC(C)NC(=O)c1c(Cl)cccc1C(=O)Nc1ccc(OC(F)F)cc1` [compound 92], the “Insecticidal effect, Test Example 1” value was “A (100)”.

In the case of `CC(C)NC(=O)c1ccc(Cl)cc1C(=O)Nc1cccc(Cl)c1Cl` [compound 186], the “Insecticidal effect, Test Example 1” value is “D (79-50)”.

For `CC(C)NC(=O)c1cccc(Cl)c1C(=O)Nc1ccc(SCC(F)(F)F)cc1` [compound 202], the “Insecticidal effect, Test Example 1” value is listed as “A (100)”.

For the molecule `CC(C)NC(=O)c1cc(Cl)ccc1C(=O)Nc1cccc(Cl)c1Cl` [compound 175], the “Insecticidal effect, Test Example 1” value is recorded as “A (100)”.

As for `CC(C)NC(=O)c1cccc(Cl)c1C(=O)Nc1ccc(C(F)(F)C(F)(F)C(F)(F)C(F)(F)F)cc1` [compound 199], the “Insecticidal effect, Test Example 1” value is on record as “A (100)”.

As for `Cc1cc(SC(C)C)ccc1NC(=O)c1cccc(I)c1C(=O)NC(C)C` [compound 402], the “Insecticidal effect, Test Example 1” value is given as “A (100)”.

Take `CC(C)NC(=O)c1cccc(I)c1C(=O)Nc1ccc(SC(F)(F)C(F)F)cc1` [compound 422]: the “Insecticidal effect, Test Example 1” value is on record as “A (100)”.

Take `CC(C)NC(=O)c1ccc(Cl)cc1C(=O)Nc1ccc(F)c(F)c1F` [compound 194]: the “Insecticidal effect, Test Example 1” value is recorded as “A (100)”.

With `CC(C)NC(=O)c1ccccc1C(=O)Nc1cc(Cl)c(OC(F)F)c(Cl)c1` [compound 84], the “Insecticidal effect, Test Example 1” value is reported as “A (100)”.

The assay is the same for the next values; noted with them: diamondback moth; mortality judged by criterion of Test Example 1.
As for `Cc1cc(OC(F)(F)F)ccc1NC(=O)c1cc(I)ccc1C(=O)NC(C)C` [compound 1247], the “Insecticidal effect, Test Example 1” value is “C (89-80)”.

On to `Cc1cc(C(F)(F)C(F)(F)F)ccc1NC(=O)c1cccc(Cl)c1C(=O)NCCc1ccccc1` [compound 1319], for which the “Insecticidal effect, Test Example 1” value is given as “A (100)”.

In the case of `Cc1cc(OC(F)(F)C(F)F)ccc1NC(=O)c1cc(I)ccc1C(=O)NC(C)C` [compound 1249], the “Insecticidal effect, Test Example 1” value is given as “A (100)”.

On to `COc1ccc(CNC(=O)c2c(Cl)cccc2C(=O)Nc2ccc(C(F)(F)C(F)(F)F)cc2C)cc1` [compound 1347], for which the “Insecticidal effect, Test Example 1” value is given as “A (100)”.

As for `Cc1cc(C(F)(F)C(F)(F)F)ccc1NC(=O)c1cccc(I)c1C(=O)N1CCCCC1` [compound 1082], the “Insecticidal effect, Test Example 1” value is reported as “A (100)”.

With `CCCONC(=O)c1c(Cl)cccc1C(=O)Nc1ccc(C(F)(F)C(F)(F)F)cc1C` [compound 1327], the “Insecticidal effect, Test Example 1” value is “A (100)”.

As for `CCN(CC)C(=O)c1cccc([N+](=O)[O-])c1C(=O)Nc1ccc(OC(F)(F)F)cc1` [compound 1139], the “Insecticidal effect, Test Example 1” value is “A (100)”.

Consider `CC(C)NC(=O)c1c(I)cccc1C(=O)Nc1ccc2nc(C(F)(F)C(F)(F)F)oc2c1` [compound 1180], for which the “Insecticidal effect, Test Example 1” value is recorded as “A (100)”.

Consider `Cc1cc(C(F)(F)C(F)(F)F)ccc1NC(=O)c1c(Cl)cccc1C(=O)NCCCc1ccccc1` [compound 1332], for which the “Insecticidal effect, Test Example 1” value was “A (100)”.

On to `Cc1cc(C(F)(F)C(F)(F)F)ccc1NC(=O)c1c(I)cccc1C(=O)NC1CC1` [compound 1025], for which the “Insecticidal effect, Test Example 1” value is “A (100)”.

With `Cc1cc(C(F)(F)C(F)(F)F)ccc1NC(=O)c1cccc(Cl)c1C(=O)N[C@@H](CO)c1ccccc1` [compound 1442], the “Insecticidal effect, Test Example 1” value is “A (100)”.

Regarding `Cc1cc(C(F)(F)C(F)(F)F)ccc1NC(=O)c1cccc(Cl)c1C(=O)NCCOc1ccccc1` [compound 1374], the “Insecticidal effect, Test Example 1” value is recorded as “A (100)”.

Staying with this assay, now noted: mortality judged according to the criterion shown in Test Example 1.
As for `COc1ccc(NC(=O)c2cccc([N+](=O)[O-])c2C(=O)NC(C)C)cc1` [compound 614], the “Insecticidal effect on diamondback moth (Test Example 1), judged grade” value (from here on “Insecticidal effect on diamondback moth”) is listed as “A (100)”.

On to `Cc1cc(OC(F)(F)C(F)C(F)(F)F)ccc1NC(=O)c1c(C(=O)NC(C)C)cccc1[N+](=O)[O-]` (stereo not shown) [compound 743], for which the “Insecticidal effect on diamondback moth” value was “D (79-50)”.

`Cc1cc(Oc2cccc(C(F)(F)F)c2)ccc1NC(=O)c1c(I)cccc1C(=O)NC(C)C` [compound 458]: the “Insecticidal effect on diamondback moth” value is “A (100)”.

Turning to `Cc1cc(NC(=O)c2cccc([N+](=O)[O-])c2C(=O)NC(C)C)c(F)cc1Cl` [compound 657], the “Insecticidal effect on diamondback moth” value was “D (79-50)”.

As to `CCCCNC(=O)c1c(C(=O)Nc2cc(Cl)ccc2C)cccc1[N+](=O)[O-]` [compound 830], the “Insecticidal effect on diamondback moth” value is “C (89-80)”.

With `CC(C)NC(=O)c1cccc(F)c1C(=O)Nc1ccc(OC(F)(F)F)cc1` [compound 537], the “Insecticidal effect on diamondback moth” value is “A (100)”.

`Cc1cc(Cl)ccc1NC(=O)c1cccc(C#N)c1C(=O)NC(C)C` [compound 744]: the “Insecticidal effect on diamondback moth” value is “C (89-80)”.

As to `CCC(CC)NC(=O)c1c(C(=O)Nc2ccc(OC(F)F)cc2C)cccc1[N+](=O)[O-]` [compound 845], the “Insecticidal effect on diamondback moth” value is “A (100)”.

For `CCc1cc(I)ccc1NC(=O)c1cccc(I)c1C(=O)NC(C)C` [compound 919], the “Insecticidal effect on diamondback moth” value is given as “A (100)”.

For `CC(C)NC(=O)c1c(C(=O)Nc2cc(Cl)c(OC(F)F)c(Cl)c2)cccc1[N+](=O)[O-]` [compound 659], the “Insecticidal effect on diamondback moth” value is “A (100)”.

Take `Cc1cc(Cl)c(Cl)cc1NC(=O)c1cccc([N+](=O)[O-])c1C(=O)NC(C)C` [compound 668]: the “Insecticidal effect on diamondback moth” value is listed as “A (100)”.

`Cc1cc(SC(C)C)ccc1NC(=O)c1c(I)cccc1C(=O)NC(C)C` [compound 462]: the “Insecticidal effect on diamondback moth” value is “A (100)”.

Consider `Cc1cc(SC(C)C)ccc1NC(=O)c1cccc([N+](=O)[O-])c1C(=O)NC(C)C` [compound 721], for which the “Insecticidal effect on diamondback moth” value is on record as “A (100)”.

Regarding `Cc1ccc(Cl)cc1NC(=O)c1c(C(=O)NC(C)C)cccc1C(F)(F)F` [compound 766], the “Insecticidal effect on diamondback moth” value is given as “A (100)”.

In the case of `Cc1ccc(Cl)cc1NC(=O)c1ccccc1C(=O)NCC(F)(F)F` [compound 864], the “Insecticidal effect on diamondback moth” value was “A (100)”.

Take `O=C(Nc1ccc(C(F)(F)F)cc1)c1ccccc1C(=O)NC1CC1` [compound 848]: the “Insecticidal effect on diamondback moth” value was “A (100)”.

On to `Cc1cc(C(F)(F)F)ccc1NC(=O)c1c(C(=O)NC(C)C)cccc1[N+](=O)[O-]` [compound 742], for which the “Insecticidal effect on diamondback moth” value is “A (100)”.

For `Cc1cc(Oc2c(F)c(F)c(F)c(F)c2F)ccc1NC(=O)c1cccc(F)c1C(=O)NC(C)C` [compound 520], the “Insecticidal effect on diamondback moth” value was “A (100)”.

As to `CC(C)NC(=O)c1c(C(=O)Nc2ccccc2F)cccc1[N+](=O)[O-]` [compound 592], the “Insecticidal effect on diamondback moth” value was “A (100)”.

With `Cc1cc(OC(F)F)ccc1NC(=O)c1cccc([N+](=O)[O-])c1C(=O)NC(C)C(C)C` (stereo not shown) [compound 846], the “Insecticidal effect on diamondback moth” value is listed as “A (100)”.

Consider `C#CCNC(=O)c1c(C(=O)Nc2ccc(OC(F)F)cc2C)cccc1[N+](=O)[O-]` [compound 870], for which the “Insecticidal effect on diamondback moth” value is listed as “A (100)”.

On to `Cc1ccc(F)cc1NC(=O)c1cccc([N+](=O)[O-])c1C(=O)NC1CCC1` [compound 855], for which the “Insecticidal effect on diamondback moth” value is “A (100)”.

On to `Cc1ccc(F)cc1NC(=O)c1cccc([N+](=O)[O-])c1C(=O)NCC1CC1` [compound 860], for which the “Insecticidal effect on diamondback moth” value is recorded as “A (100)”.

For `CSc1cccc(NC(=O)c2cccc([N+](=O)[O-])c2C(=O)NC(C)C)c1` [compound 621], the “Insecticidal effect on diamondback moth” value is “A (100)”.

As to `Cc1ccc(Cl)cc1NC(=O)c1cccc([N+](=O)[O-])c1C(=O)NC1CCCCC1` [compound 859], the “Insecticidal effect on diamondback moth” value is recorded as “D (79-50)”.

Consider `Cc1cc(Cl)ccc1N(C)C(=O)c1ccccc1C(=O)NC(C)C` [compound 827], for which the “Insecticidal effect on diamondback moth” value was “A (100)”.

Regarding `Cc1cc(Br)ccc1NC(=O)c1cccc([N+](=O)[O-])c1C(=O)NCc1cccnc1` [compound 888], the “Insecticidal effect on diamondback moth” value is reported as “D (79-50)”.

For `Cc1cc(OC(F)F)ccc1NC(=O)c1cccc([N+](=O)[O-])c1C(=O)NCC(C)C` [compound 832], the “Insecticidal effect on diamondback moth” value is “A (100)”.
